The numbers were not newly measured in patent US20100048679A1, “POLYNUCLEOTIDE THERAPY” (Bayhill Therapeutics, Inc., priority 2006, published 2010), which cites them from elsewhere.

Where two headings read alike, the source gives them in different places.

The test system of the data set is patients.

For the compound `O=C1c2c(O)ccc(O)c2C(=O)c2c(NCCNCCO)ccc(NCCNCCO)c21` [mitoxantrone], the Significant side effects result (MS patients, literature) is on record as “myelosuppression with increased risk for infections”. Turning to glatiramer acetate, under “in vivo”, the Significant side effects result is given as “allergic reactions”. On to natalizumab [Tysabri], for which, for the setting “MS patients, literature”, the Significant side effects result is given as “decreases lymphocyte trafficking”. Turning to interferon β, the Significant side effects entry (MS patients, literature) was “flu-like symptoms”.
